1 compound from publication PMC7516806, “Hybrid Antimicrobial Peptide Targeting Staphylococcus aureus and Displaying Anti-infective Activity in a Murine Model” (Frontiers in Microbiology, 2020) can be followed below.

≈ marks a conversion by molar mass, not a printed value. Positions of bridges follow the written chain, without caps; N, C: chain ends. Residues, ends and D or L forms follow the SMILES beside them.

Experiment [1] relates to S. aureus 29213. Nature of the experiment: MIC in the presence of physiological salts. The following applies: three independent repeats, unit not given in Table 4. In kind it is cell-based, Staphylococcus aureus. The procedure:
(§1) The experiment was repeated at least three times independently.
The MIC of peptides was determined in the presence of salts at physiological concentrations (150 mM NaCl, 4.5 mM KCl, 6 μM NH4Cl, 8 μM ZnCl2, 1 mM MgCl2, 2 mM CaCl2, and 4 μM FeCl3) as described previously ([Dong et al., 2014]). All experiments were performed three times independently.

The subject of experiment [2] is Staphylococcus aureus 29213. Nature of the experiment: Bacterial resistance development, serial passaging. In kind it is cell-based. The following applies: serial passage at sub-MIC for 15 days. The source says: Staphylococcus aureus 29213 was employed to assess the development of resistance by the serial passaging method, as previously described ([Lyu et al., 2017]). Minimum inhibitory concentration testing was first conducted for all of the compounds to be tested, as described above. S. aureus was harvested from 96-well plates of sub-MIC levels, diluted in MHB to a concentration of 2–7 × 10^5 CFU/mL, and then subjected to MIC determination for up to 15 days. The change in MIC values determines the development of antibiotic resistance in S. aureus.

Experiment [3] deals with S. aureus 29213. As to the kind of experiment: Mouse model of subcutaneous infection. In kind it is in vivo, ICR mice. The following applies: 80× MIC. How it is done: To assess the antimicrobial activity of the peptide in vivo, a mouse model of subcutaneous infection was used ([Huang et al., 2011a]; [Omolo et al., 2017]). Female Institute for Cancer Research (ICR) mice (SPF, 20–25 g) were purchased from WeiTonglihua Co., Ltd. (Beijing, China), with eight animals per group. The mice were shaved on their backs and disinfected. S. aureus 29213 (100 μL) at a concentration of 1 × 10^8 CFU/mL was injected into the superficial skin of the mice. The mice were divided into four groups (n = 4), as follows: S. aureus + saline, S. aureus + S2 (80× MIC, 100 μL), S. aureus + vancomycin (Van) (80× MIC, 100 μL), and saline. S2, vancomycin, and saline were injected at the same site 1 h after infection. The mice were monitored over 24 h in an environmentally controlled room at 25 ± 1°C and 55 ± 5% relative humidity with a 12 h light/dark cycle.
To image the infected skin tissues, the mice were euthanized 24 h after the injection of S. aureus. Samples were fixed in 4% buffered paraformaldehyde and subjected to hematoxylin/eosin (HE) staining. The antimicrobial activity in vivo was determined by colony counting of infected skin samples. Skin homogenates were serially diluted in saline and incubated at 37°C for 24 h.

The test system of experiment [4] is P. aeruginosa 27853. As to the kind of experiment: MIC, modified microtiter dilution. In kind it is cell-based, Pseudomonas aeruginosa. The following applies: MHB, 2–7 × 10^5 CFU/ml, 37°C, 24 h, no turbidity, at least three independent repeats.
Source text: as §1

Experiment [5] deals with S. aureus ATCC 29213. As to the kind of experiment: SEM and TEM characterization of membrane damage. It counts as cell-based, Staphylococcus aureus. The procedure:
Bacterial membrane damage induced by the peptide was visualized using scanning electron microscopy (SEM). S. aureus ATCC 29213 was washed three times using PBS after growing to the mid-log phase and diluted to an OD600 = 0.2. The bacteria were incubated for 30 min with peptide, and the bacterial growth in PBS was used as the control. The cells were washed twice with PBS and fixed with 2.5% (w/v) glutaraldehyde at 4°C overnight. The bacterial cells were dehydrated with a graded series of ethanol (50, 70, 90, and 100%) for 10 min at each step. The samples were transferred to a mixture (v: v = 1:1) of alcohol and tert-butanol for 30 min and tert-butanol alone for 1 h. The dried bacterial specimens, which were obtained using a critical point dryer, were coated and visualized under a field emission scanning electron microscope (Hitachi S-4800, Japan).
The processing method of the samples for transmission electron microscopy (TEM) was the same as the treatment for SEM. The samples were then prefixed with 2.5% glutaraldehyde at 4°C overnight, post-fixed with osmium tetroxide for 70 min, and washed twice with PBS (pH 7.2). Subsequently, the samples were dehydrated in different concentrations of ethanol (50, 70, and 90%) for 8 min in series and 10 min in 100% ethanol twice and then transferred to a mixture (v:v = 1:1) of 100% ethanol and acetone for 10 min. […]

In experiment [6] the test system is MRSA 43300. It counts as cell-based, Staphylococcus aureus. The following applies: MHB, 2–7 × 10^5 CFU/ml, 37°C, 24 h, no turbidity, at least three independent repeats.
Source text: as §1

As for `CC(C)C[C@H](NC(=O)[C@H](CC(C)C)NC(=O)[C@H](Cc1c[nH]c2ccccc12)NC(=O)[C@H](Cc1c[nH]c2ccccc12)NC(=O)[C@H](Cc1c[nH]c2ccccc12)NC(=O)[C@H](CCCNC(=N)N)NC(=O)[C@@H]1CSSC[C@H](N)C(=O)N[C@@H](C)C(=O)N[C@@H](CO)C(=O)N[C@@H](Cc2ccc(O)cc2)C(=O)N[C@@H](Cc2ccccc2)C(=O)N1)C(N)=O` [Peptide S2] (H-CASYFCRWWWLL-NH2; disulfide 1-6; N-terminus assumed), in experiment [1] (4 μM FeCl3), the “MIC against S. aureus 29213, FeCl3” value amounted to 16 µM. The “MIC against S. aureus 29213, NH4Cl” value in experiment [1] (6 μM NH4Cl) was determined as 8 µM. In addition, the “MIC against S. aureus 29213, ZnCl2” value in experiment [1] (8 μM ZnCl2) turned out to be 4 µM. Besides, the “MIC against S. aureus 29213, MgCl2” value in experiment [1] (1 mM MgCl2) was 8 µM. The “MIC against S. aureus 29213, CaCl2” value in experiment [1] (2 mM CaCl2) stood at 16 µM. In addition, the “MIC against S. aureus 29213, KCl” value in experiment [1] (4.5 mM KCl) was 8 µM. In addition, the “MIC against S. aureus 29213, NaCl” value in experiment [1] (150 mM NaCl) is 8 µM. Moreover, the “change in MIC value, 15th day versus first day” value in experiment [2] is reported as “remained almost constant”. Moreover, the “decrease in bacterial colonies at infection site versus control group” value in experiment [3] (100 μL injected at the infected site 1 h after infection, skin homogenate colony count after 24 h, P < 0.01) was determined as 10 fold. Besides, the “ulceration (lesion) size, length × width” value in experiment [3] (100 μL, 1 h after infection) was “significantly reduced ulceration sizes”. The “MIC P. aeruginosa 27853” value in experiment [4] was greater than 64 µM. Moreover, the “morphology and membrane integrity by SEM” value in experiment [5] (at its MIC for 30 min) was “wrinkles, disrupted membrane integrity, and leakage of cell contents”. For the same compound, the “morphology and internal structure by TEM” value in experiment [5] (treatment for 30 min) was “the membrane of S. aureus was damaged, and a substantial outflow of cytoplasm was observed”. Also, in experiment [6], the “MIC MRSA 43300” value worked out at 8 µM (≈ 13 µg/mL).
